Experimental data as given in patent US6372693B1, “Substituted 2-(3-alkenyl-benzoyl)-cyclohexane-1,3-diones” (BASF Aktiengesellschaft, priority 1997, dated 2002).

Assays:
Assay in all cases: greenhouse herbicidal test, post-emergence treatment
Type in all cases: in vivo
Solanum nigrum = conditions: 0.5 or 0.25 kg/ha a.s., Solanum nigrum (black nightshade)
Experimental: (§1) The culture containers used were plastic flowerpots containing loamy sand with approximately 3.0% of humus as substrate. The seeds of the test plants were sown separately for each species.
(§2) For the purposes of post-emergence treatment, the test plants were grown to a plant height of from 3 to 15 cm, depending on the plant habit, and only then treated with the active ingredients which had been suspended or emulsified in water. To this end, the test plants were either sown directly and grown in the same containers, or they were first grown separately as seedlings and transplanted into the test containers a few days prior to treatment. The rate of application for the post-emergence treatment was 0.5 or 0.25 kg/ha a.s.
(§3) Depending on the species, the plants were kept at from 10-25° C. and 20-35° C., respectively. The test period extended over 2 to 4 weeks. During this time, the plants were tended, and their response to the individual treatments was evaluated.
(§4) Evaluation was carried out using a scale of from 0 to 100. 100 means no emergence of the plants, or complete destruction of at least the aerial parts, and 0 means no damage or normal course of growth.
(§5) The plants used in the greenhouse experiments belonged to the following species: […]

Sinapis alba = conditions: 0.5 or 0.25 kg/ha a.s., Sinapis alba (white mustard)
Experimental: as §1, §2, §3, §4, §5

Polygonum persicaria = conditions: 0.5 or 0.25 kg/ha a.s., Polygonum persicaria (ladysthumb)
Experimental: as §1, §2, §3, §4, §5

Chenopodium album = conditions: 0.5 or 0.25 kg/ha a.s., Chenopodium album (lambsquarters)
Experimental: as §1, §2, §3, §4, §5

Measured: herbicidal action (control of the weed)

CC=Cc1c(Cl)ccc(C(=O)C2C(=O)CCCC2=O)c1Cl [Compound 2.1, 2-[2′,4′-Dichloro-3′-(prop-1″-en-1″-yl)benzoyl]-1,3-cyclo-hexanedione]
very good control: all assays above
